Measured values taken from ChEMBL document CHEMBL1201862, “PubChem BioAssay data set” (2004).
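Cells were grown in 96-well plates and exposed to each compound for 48 hours at five concentrations; endpoints were interpolated linearly between bracketing concentrations, or set to the highest concentration if not reached. GI50 = concentration required for 50% inhibition of growth.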 Activity calls are given as the source filed them. Cut-off read from the data, not from the text of the source: active = GI50 up to about 1.1 µM and inactive = higher.

Legend:
Experiment in all cases: NCI-60 cell line screen, 48 h
SNB-19 = system: SNB-19
EKVX = system: EKVX
UO-31 = system: UO-31
COLO 205 = system: COLO 205
MDA-MB-231 = system: MDA-MB-231
MCF7 = system: MCF7
U-251 = system: U-251
MOLT-4 = system: MOLT-4
SK-MEL-28 = system: SK-MEL-28
NCI-H23 = system: NCI-H23
K562 = system: K562
786-0 = system: 786-0
A549 = system: A549
UACC-62 = system: UACC-62
HOP-92 = system: HOP-92
Malme-3M = system: Malme-3M
BT-549 = system: BT-549
HT-29 = system: HT-29
RPMI-8226 = system: RPMI-8226

Measured: GI50

CCC(=O)OCN1C(=O)C=CC1=O
inactive: SNB-19 18.5 µM | EKVX 19.8 µM | UO-31 7.91 µM | COLO 205 4.28 µM | MDA-MB-231 18.7 µM | MCF7 20.1 µM | U-251 17.6 µM | MOLT-4 2.3 µM | SK-MEL-28 18.6 µM | NCI-H23 18 µM | K562 3.26 µM | 786-0 5.38 µM | A549 18.7 µM | UACC-62 17 µM | HOP-92 15.2 µM | Malme-3M 13.8 µM | BT-549 18.5 µM | HT-29 17.9 µM

Nc1ncnc2nc(N3CCN(CCO)CC3)[nH]c12
inactive: SNB-19 > 100 µM | EKVX > 100 µM | RPMI-8226 > 100 µM | UO-31 > 100 µM | COLO 205 > 100 µM | MDA-MB-231 > 100 µM | MCF7 > 100 µM | U-251 > 100 µM | MOLT-4 50.6 µM | SK-MEL-28 > 100 µM | NCI-H23 > 100 µM | K562 > 100 µM | 786-0 > 100 µM | A549 > 100 µM | UACC-62 > 100 µM | Malme-3M > 100 µM | BT-549 > 100 µM | HT-29 > 100 µM

[N-]=[N+]=Nc1ccc(NCCCCCC(=O)ON2C(=O)CCC2=O)c([N+](=O)[O-])c1
inactive: SNB-19 > 100 µM | EKVX 98.9 µM | UO-31 46.3 µM | COLO 205 > 100 µM | MDA-MB-231 77.1 µM | MCF7 > 100 µM | U-251 > 100 µM | MOLT-4 15.4 µM | SK-MEL-28 74.1 µM | NCI-H23 66.7 µM | K562 22.4 µM | 786-0 > 100 µM | A549 78.9 µM | UACC-62 33.1 µM | HOP-92 10.3 µM | Malme-3M 27.9 µM | BT-549 > 100 µM | HT-29 > 100 µM

COC(=O)c1sc(=S)sc1SCc1ccccc1CSc1sc(=S)sc1C(=O)OC
inactive: SNB-19 77.1 µM | EKVX > 100 µM | UO-31 > 100 µM | COLO 205 > 100 µM | MDA-MB-231 > 100 µM | MCF7 > 100 µM | U-251 > 100 µM | MOLT-4 > 100 µM | SK-MEL-28 > 100 µM | NCI-H23 > 100 µM | K562 38.5 µM | 786-0 46.1 µM | A549 > 100 µM | UACC-62 > 100 µM | HOP-92 > 100 µM | Malme-3M > 100 µM | BT-549 > 100 µM | HT-29 > 100 µM

CC1(C)CC(=O)C2=C(C1)NC(SCC(=O)O)=C(C#N)C2c1ccc(Br)cc1 (centres undefined)
inactive: SNB-19 > 100 µM | EKVX > 100 µM | UO-31 4.56 µM | COLO 205 > 100 µM | MDA-MB-231 > 100 µM | MCF7 > 100 µM | U-251 > 100 µM | SK-MEL-28 > 100 µM | NCI-H23 > 100 µM | 786-0 > 100 µM | A549 > 100 µM | UACC-62 > 100 µM | HOP-92 27.4 µM | BT-549 > 100 µM | HT-29 > 100 µM

CN(C)c1ccc(/C=C(\NC(=O)c2ccccc2)C(=O)Nc2cccc(C(=O)NCCCO)c2)cc1
inactive: SNB-19 > 100 µM | EKVX > 100 µM | RPMI-8226 > 100 µM | UO-31 > 100 µM | COLO 205 > 100 µM | MDA-MB-231 > 100 µM | MCF7 > 100 µM | U-251 > 100 µM | MOLT-4 > 100 µM | SK-MEL-28 > 100 µM | NCI-H23 > 100 µM | K562 > 100 µM | 786-0 > 100 µM | A549 > 100 µM | UACC-62 > 100 µM | HOP-92 > 100 µM | Malme-3M > 100 µM | BT-549 > 100 µM | HT-29 > 100 µM

Cc1ccc(C(=O)Nc2ccc(CP(=O)(O)O)cc2CP(=O)(O)O)cc1NC(=O)c1cccc(N)c1
inactive: EKVX > 100 µM | RPMI-8226 > 100 µM | UO-31 > 100 µM | COLO 205 > 100 µM | MDA-MB-231 > 100 µM | MCF7 > 100 µM | U-251 > 100 µM | MOLT-4 > 100 µM | SK-MEL-28 > 100 µM | NCI-H23 > 100 µM | K562 > 100 µM | 786-0 > 100 µM | A549 > 100 µM | UACC-62 > 100 µM | Malme-3M > 100 µM | BT-549 > 100 µM | HT-29 > 100 µM

O=S(=O)(N/C(=N\O)Nc1ccc(Cl)cc1)c1cc(C(F)(F)F)cc(C(F)(F)F)c1
inactive: SNB-19 17.1 µM | EKVX 16.6 µM | COLO 205 18.6 µM | MDA-MB-231 18.4 µM | U-251 16.6 µM | MOLT-4 19 µM | SK-MEL-28 19.2 µM | NCI-H23 19.9 µM | K562 29.9 µM | 786-0 19.3 µM | A549 18.1 µM | UACC-62 16.7 µM | HOP-92 16.2 µM | Malme-3M 18 µM | BT-549 18.7 µM | HT-29 19 µM
